Reference: paper PMC12785511, “Integrative Profiling for BBB Permeability Using Capillary Electrochromatography, Experimental Physicochemical Parameters, and Ensemble Machine Learning” (International Journal of Molecular Sciences, 2025)
Read-outs that look alike come from different tables or passages of the source.

How the values were obtained:
[1] = open-tubular capillary electrochromatography (CEC), permeability k′ parameter; format: in vitro ADME; details: pH 7.4 HEPES buffer 40 mM, migration times in coated and uncoated capillary, mean ± SD of three independent experiments
Description: The separation HEPES buffer, POPC/PS liposomes (80:20 mol% ratio; large unilamellar vesicles type; LUV), and test samples were prepared according to the protocol described earlier [45]. […] To complete the coating procedure, the capillary was left to stand filled with the liposome solution for 15 min.
Since the reference drugs tested in this study are compounds ionized at pH 7.4, their migration times determined in the uncoated and coated capillary variants were used in the k′ permeability parameter calculations. At first, the experiments were conducted in the liposome-untreated capillary. Next, after coating the capillary with the inner liposomal layer, the migration times of analytes were evaluated once again in the coated one. […] The pH 7.4 HEPES buffer (40 mM) was used as the background electrolyte solution in all CEC experiments.
The CEC permeability k′ parameter was calculated for each reference drug based on its experimentally determined migration times in the uncoated and coated capillary variants using Equation (2) [56]:(2) k^′=tR(1/tEOF+ 1/tR^′− 1/tEOF^′)−1 where tR and tEOF are the migration times of the analyte and EOF marker in the coated capillary, respectively, and tR′ and tEOF′ are analogical migration times in the uncoated capillary.

[2] = physchem
Description: (§1) Using the Sirius T3 device, the physicochemical properties of the reference drugs were determined by automated potentiometric titrations. The compounds’ acidity was measured by determining their pKa parameters. […] The obtained psKa values were next extrapolated to the 0% content of methanol (pure ISA water) using the Yasuda–Shedlovsky extrapolation plots. The lipophilicity of the research compounds (log P parameters) was measured by the automated potentiometric method as well, based on the previously obtained compounds’ pKa values. The aqueous pH-metric titrations were carried out in the presence of n-octanol—an immiscible water partition solvent. […] The log P parameters were determined based on the differences between the apparent poKa and aqueous pKa values in three independent titrations conducted with diverse volume ratios of the aqueous and n-octanol phases. Log D7.4 values were calculated automatically by the Sirius T3 Refine software (version 2.0.0.0) based on the obtained log P and pKa values.

[3] = cited from earlier work
[4] = Sirius T3 automated potentiometric (pH-metric) titrations, pKa
Description: as §1

[5] = physchem; remark: listed apart in the source
Description: as §1

| SMILES | k′ ± SD (CEC) [1] | logP [2] | logD ([2]; pH 7.4) | Log BB ([3]; experimental in vivo measurements from rats, data retrieved from literature) | pKa [4] | pKa [5] | Log BB ([3]; rat, in vivo) |
| --- | --- | --- | --- | --- | --- | --- | --- |
| O=C(O)CCCc1ccc(N(CCCl)CCCl)cc1 [chlorambucil] | 0.00397 ± 0.00087 | 3.71 ± 0.02 | 1.07 | −1.70 | 4.72 ± 0.04 | – | – |
| CNC(=O)Oc1ccc2c(c1)[C@]1(C)CCN(C)[C@@H]1N2C [physostigmine] | 0.01268 ± 0.00087 | – | – | – | – | 8.24 ± 0.04 | 0.08 |
| CCCN(CCC)CCc1cccc2c1CC(=O)N2 [ropinirole] | −0.01252 ± 0.00126 | – | – | – | – | 9.7 ± 0.05 | – |
